Source: PubChem BioAssay AID1259407 (Chemical Carcinogenesis Research Information System (CCRIS), 2018)
Calls of active or inactive are those of the source. No rule for the calls is given here.

System: CCRIS mutagenicity, Ames/micronucleus/aberration tests
Assay: CCRIS mutagenicity studies
[1] = Test System: AMES SALMONELLA TYPHIMURIUM, Strain/Indicator: TA98, Metabolic Activation: HAMSTER, LIVER, S-9, AROCLOR 1254 (10%), Method: PREINCUBATION
[2] = Test System: AMES SALMONELLA TYPHIMURIUM, Strain/Indicator: TA98, Metabolic Activation: NONE, Method: PREINCUBATION
[3] = Test System: AMES SALMONELLA TYPHIMURIUM, Strain/Indicator: TA98, Metabolic Activation: RAT, LIVER, S-9, AROCLOR 1254 (10%), Method: PREINCUBATION
[4] = Test System: AMES SALMONELLA TYPHIMURIUM, Strain/Indicator: TA100, Metabolic Activation: HAMSTER, LIVER, S-9, AROCLOR 1254 (10%), Method: PREINCUBATION
[5] = Test System: AMES SALMONELLA TYPHIMURIUM, Strain/Indicator: TA100, Metabolic Activation: NONE, Method: PREINCUBATION
[6] = Test System: AMES SALMONELLA TYPHIMURIUM, Strain/Indicator: TA100, Metabolic Activation: NONE, Method: STANDARD PLATE
[7] = Test System: AMES SALMONELLA TYPHIMURIUM, Strain/Indicator: TA100, Metabolic Activation: RAT, LIVER, S-9, AROCLOR 1254 (10%), Method: PREINCUBATION
[8] = Test System: AMES SALMONELLA TYPHIMURIUM, Strain/Indicator: TA100, Metabolic Activation: S-9, Method: STANDARD PLATE
[9] = Test System: AMES SALMONELLA TYPHIMURIUM, Strain/Indicator: TA1535, Metabolic Activation: HAMSTER, LIVER, S-9, AROCLOR 1254 (10%), Method: PREINCUBATION
[10] = Test System: AMES SALMONELLA TYPHIMURIUM, Strain/Indicator: TA1535, Metabolic Activation: NONE, Method: PREINCUBATION
[11] = Test System: AMES SALMONELLA TYPHIMURIUM, Strain/Indicator: TA1535, Metabolic Activation: RAT, LIVER, S-9, AROCLOR 1254 (10%), Method: PREINCUBATION
[12] = Test System: AMES SALMONELLA TYPHIMURIUM, Strain/Indicator: TA1537, Metabolic Activation: NONE, Method: PREINCUBATION
[13] = Test System: AMES SALMONELLA TYPHIMURIUM, Strain/Indicator: TA98, Metabolic Activation: NONE, Method: STANDARD PLATE

CCCCOC(=O)c1ccccc1C(=O)OCCCC
mutagenic call [1]: inactive; negative
mutagenic call [2]: inactive; negative
mutagenic call [3]: inactive; negative
mutagenic call [4]: inactive; negative
mutagenic call [5]: inactive; negative
mutagenic call [6]: active; positive
mutagenic call [7]: inactive; negative
mutagenic call [8]: inactive; negative
mutagenic call [9]: inactive; negative
mutagenic call [10]: inactive; negative
mutagenic call (Test System: AMES SALMONELLA TYPHIMURIUM, Strain/Indicator: TA1535, Metabolic Activation: NONE, Method: STANDARD PLATE): inactive; negative
mutagenic call [11]: inactive; negative
mutagenic call (Test System: AMES SALMONELLA TYPHIMURIUM, Strain/Indicator: TA1535, Metabolic Activation: S-9, Method: STANDARD PLATE): inactive; negative
mutagenic call (Test System: AMES SALMONELLA TYPHIMURIUM, Strain/Indicator: TA1537, Metabolic Activation: HAMSTER, LIVER, S-9, AROCLOR 1254 (10%), Method: PREINCUBATION): inactive; negative
mutagenic call [12]: inactive; negative
mutagenic call (Test System: AMES SALMONELLA TYPHIMURIUM, Strain/Indicator: TA1537, Metabolic Activation: RAT, LIVER, S-9, AROCLOR 1254 (10%), Method: PREINCUBATION): inactive; negative
mutagenic call (Test System: MOUSE LYMPHOMA, Strain/Indicator: L5178Y (TK+/TK-), Metabolic Activation: NONE, Method: SUSPENSION/PLATE): inactive; negative
mutagenic call (Test System: MOUSE LYMPHOMA, Strain/Indicator: L5178Y (TK+/TK-), Metabolic Activation: RAT LIVER S-9, Method: SUSPENSION/PLATE): active; positive

CC(=O)O[C@H]1C[C@@H]2[C@@]3(C)CCCC(C)(C)[C@@H]3CC[C@@]2(C)[C@@H]2CC=C(C=O)[C@H](C=O)[C@@]12C
mutagenic call [13]: inactive; negative
mutagenic call [6]: inactive; negative
mutagenic call (Test System: AMES SALMONELLA TYPHIMURIUM, Strain/Indicator: TA2637, Metabolic Activation: NONE, Method: STANDARD PLATE): inactive; negative

CC(=O)N(Nc1ccc2c(c1)Cc1ccccc1-2)c1ccc2c(c1)Cc1ccccc1-2
mutagenic call (Test System: AMES SALMONELLA TYPHIMURIUM, Strain/Indicator: TA98, Metabolic Activation: RAT, LIVER, S-9, AROCLOR 1254, Method: STANDARD PLATE): active; positive

O=[N+]([O-])c1ccc(/C=C/c2cccc([N+](=O)[O-])c2)cc1
mutagenic call (Test System: AMES SALMONELLA TYPHIMURIUM, Strain/Indicator: TA98 (NR), Metabolic Activation: NONE, Method: STANDARD PLATE): active; positive
mutagenic call (Test System: AMES SALMONELLA TYPHIMURIUM, Strain/Indicator: TA98 (NR), Metabolic Activation: S-9, Method: STANDARD PLATE): inactive; negative
mutagenic call [13]: active; positive
mutagenic call (Test System: AMES SALMONELLA TYPHIMURIUM, Strain/Indicator: TA98, Metabolic Activation: S-9, Method: STANDARD PLATE): active; positive
mutagenic call (Test System: AMES SALMONELLA TYPHIMURIUM, Strain/Indicator: TA100 (NR), Metabolic Activation: NONE, Method: STANDARD PLATE): inactive; negative
mutagenic call (Test System: AMES SALMONELLA TYPHIMURIUM, Strain/Indicator: TA100 (NR), Metabolic Activation: S-9, Method: STANDARD PLATE): inactive; negative
mutagenic call [6]: active; positive
mutagenic call [8]: active; positive

Nc1cnc2ccccc2c1
mutagenic call [2]: inactive; negative
mutagenic call (Test System: AMES SALMONELLA TYPHIMURIUM, Strain/Indicator: TA98, Metabolic Activation: RAT, LIVER, S-9, KANECHLOR 500 OR PHENOBARBITAL AND BETA-NAPHTHOFLAVONE, Method: PREINCUBATION): active; positive
mutagenic call [5]: inactive; negative
mutagenic call (Test System: AMES SALMONELLA TYPHIMURIUM, Strain/Indicator: TA100, Metabolic Activation: RAT, LIVER, S-9, KANECHLOR 500 OR PHENOBARBITAL AND BETA-NAPHTHOFLAVONE, Method: PREINCUBATION): active; positive

Cc1cccc(Br)c1
mutagenic call (Test System: AMES SALMONELLA TYPHIMURIUM, Strain/Indicator: TA97, Metabolic Activation: HAMSTER, LIVER, S-9, AROCLOR 1254 (10%), Method: PREINCUBATION): inactive; negative
mutagenic call (Test System: AMES SALMONELLA TYPHIMURIUM, Strain/Indicator: TA97, Metabolic Activation: HAMSTER, LIVER, S-9, AROCLOR 1254 (30%), Method: PREINCUBATION): inactive; negative
mutagenic call (Test System: AMES SALMONELLA TYPHIMURIUM, Strain/Indicator: TA97, Metabolic Activation: NONE, Method: PREINCUBATION): inactive; negative
mutagenic call (Test System: AMES SALMONELLA TYPHIMURIUM, Strain/Indicator: TA97, Metabolic Activation: RAT, LIVER, S-9, AROCLOR 1254 (10%), Method: PREINCUBATION): inactive; negative
mutagenic call (Test System: AMES SALMONELLA TYPHIMURIUM, Strain/Indicator: TA97, Metabolic Activation: RAT, LIVER, S-9, AROCLOR 1254 (30%), Method: PREINCUBATION): inactive; negative
mutagenic call [1]: inactive; negative
mutagenic call (Test System: AMES SALMONELLA TYPHIMURIUM, Strain/Indicator: TA98, Metabolic Activation: HAMSTER, LIVER, S-9, AROCLOR 1254 (30%), Method: PREINCUBATION): inactive; negative
mutagenic call [2]: inactive; negative
mutagenic call [3]: inactive; negative
mutagenic call (Test System: AMES SALMONELLA TYPHIMURIUM, Strain/Indicator: TA98, Metabolic Activation: RAT, LIVER, S-9, AROCLOR 1254 (30%), Method: PREINCUBATION): inactive; negative
mutagenic call [4]: inactive; negative
mutagenic call (Test System: AMES SALMONELLA TYPHIMURIUM, Strain/Indicator: TA100, Metabolic Activation: HAMSTER, LIVER, S-9, AROCLOR 1254 (30%), Method: PREINCUBATION): inactive; negative
mutagenic call [5]: inactive; negative
mutagenic call [7]: inactive; negative
mutagenic call (Test System: AMES SALMONELLA TYPHIMURIUM, Strain/Indicator: TA100, Metabolic Activation: RAT, LIVER, S-9, AROCLOR 1254 (30%), Method: PREINCUBATION): inactive; negative
mutagenic call [9]: inactive; negative
mutagenic call (Test System: AMES SALMONELLA TYPHIMURIUM, Strain/Indicator: TA1535, Metabolic Activation: HAMSTER, LIVER, S-9, AROCLOR 1254 (30%), Method: PREINCUBATION): inactive; negative
mutagenic call [10]: inactive; negative
mutagenic call [11]: inactive; negative
mutagenic call (Test System: AMES SALMONELLA TYPHIMURIUM, Strain/Indicator: TA1535, Metabolic Activation: RAT, LIVER, S-9, AROCLOR 1254 (30%), Method: PREINCUBATION): inactive; negative
mutagenic call (Test System: AMES SALMONELLA TYPHIMURIUM, Strain/Indicator: TA1537, Metabolic Activation: HAMSTER, LIVER, S-9, AROCLOR 1254 (30%), Method: PREINCUBATION): inactive; negative
mutagenic call [12]: inactive; negative
mutagenic call (Test System: AMES SALMONELLA TYPHIMURIUM, Strain/Indicator: TA1537, Metabolic Activation: RAT, LIVER, S-9, AROCLOR 1254 (30%), Method: PREINCUBATION): inactive; negative

CC(=O)OC[C@@]1(O)CC23CC[C@@H]4c5ccoc5C=C[C@@]4(C)[C@@H]2CC[C@@H]1C3
mutagenic call (Test System: AMES SALMONELLA TYPHIMURIUM, Strain/Indicator: TM677, Metabolic Activation: NONE, Method: PREINCUBATION): inactive; negative
mutagenic call (Test System: AMES SALMONELLA TYPHIMURIUM, Strain/Indicator: TM677, Metabolic Activation: RAT, LIVER, S-9, AROCLOR 1254, Method: PREINCUBATION): inactive; negative

NC(=O)c1csc([N+](=O)[O-])c1
mutagenic call [13]: active; positive
mutagenic call [6]: active; positive
